Where two headings read alike, the source gives them in different places.
Columns and labels:
[1] = log P by reversed-phase HPLC (EEC Directive 79/831 Annex V.A8); assay type: physicochemical; details: for chromatographic logP: reversed-phase C18 HPLC column
Description: NMR data and log P values: log P (HCOOH)=log P[a] log P (neutral)=log P[b]
^[a] […] Called log P (HCOOH) in the table.
^[b] […] Called log P (neutral) in the table.

[2] = tested on: Tetranychus urticae; assay: Tetranychus urticae spray test, OP-resistant (TETRUR); assay type: in vivo; details: 500 g/ha, bean leaf discs, after 6 days
Protocol: Tetranychus urticae—spray test, OP-resistant (TETRUR)
• Solvent: 78.0 parts by weight of acetone • 1.5 parts by weight of dimethylformamide • Emulsifier: 0.5 part by weight of alkylaryl polyglycol ether
After 6 days, the efficacy in % is determined. 100% means that all the spider mites have been killed; 0% means that no spider mites have been killed.

[3] = tested on: Myzus persicae; assay: Myzus persicae spray test (MYZUPE); assay type: in vivo; details: 500 g/ha, Chinese cabbage leaf discs, after 6 days
Protocol: Myzus persicae—spray test (MYZUPE)
• Solvent: 78 parts by weight of acetone • 1.5 parts by weight of dimethylformamide • Emulsifier: 0.5 part by weight of alkylaryl polyglycol ether
After 6 days, the efficacy in % is determined. 100% means that all the aphids have been killed; 0% means that no aphids have been killed.

[4] = acidic range, pH 2.7, 0.1% aqueous formic acid/acetonitrile, read-out: logP [a] = log P (HCOOH)
[5] = acidic range, pH 2.7, 0.1% aqueous formic acid/acetonitrile
[6] = neutral range, pH 7.8, aqueous ammonium hydrogencarbonate/acetonitrile
[7] = neutral range, pH 7.8, aqueous ammonium hydrogencarbonate/acetonitrile, read-out: logP [b] = log P (neutral)

CCSc1ccccc1-c1nc2ccc(C(F)(F)F)cc2nc1Cl [Example I-3, 3-Chloro-2-[2-(ethylsulfanyl)phenyl]-6-(trifluoromethyl)quinoxaline]
chromatographic logP [1, 4]: 5.2

FC1(F)Oc2cc3ncc(-c4ccc(C(F)(F)F)cc4)nc3cc2O1 [Example I-5, 2,2-Difluoro-6-[4-(trifluoromethyl)phenyl][1,3]dioxolo [4,5-g]quinoxaline]
chromatographic logP [1, 4]: 5.02

[O-][n+]1cc(-c2ccc(C(F)(F)F)cc2)nc2cc3c(cc21)OC(F)(F)O3 [Example I-6, 2,2-Difluoro-7-[4-(trifluoromethyl)phenyl][1,3]dioxolo [4,5-g]quinoxaline 5-oxide]
chromatographic logP [1, 4]: 4.12

FC(F)(F)c1ccc2nc(-c3cncnc3)cnc2c1 [Example I-12]
logP [a] = log P (HCOOH) ([1]; pH 2.7): 2.33
efficacy (spider mites killed) [2]: 90%

Cc1cnccc1-c1cnc2ccc(S(C)(=O)=O)cc2n1 [Example I-13]
logP [a] = log P (HCOOH) ([1]; pH 2.7): 0.72
logP [b] = log P (neutral) ([1]; pH 7.8): 1.34

CSc1ccccc1-c1cnc2cc(C(F)(F)F)ccc2n1 [Example I-16]
logP [a] = log P (HCOOH) ([1]; pH 2.7): 4.45
logP [b] = log P (neutral) ([1]; pH 7.8): 4.31

Cc1cnccc1-c1cnc2cc(Cl)ccc2n1 [Example I-17]
logP [a] = log P (HCOOH) ([1]; pH 2.7): 1.69
logP [b] = log P (neutral) ([1]; pH 7.8): 2.58

FC(F)(F)c1ccc2nc(-c3ccccn3)cnc2c1 [Example I-18]
efficacy (aphids killed) [3]: 90%
logP [a] = log P (HCOOH) [1, 5]: 3.72
logP [b] = log P (neutral) [1, 6]: 3.75
efficacy (spider mites killed) [2]: 90%

Clc1ccc2nc(-c3cncnc3)cnc2c1 [Example I-19]
logP [a] = log P (HCOOH) ([1]; pH 2.7): 2.01

FC(F)(F)c1ccccc1-c1cnc2cc(Cl)ccc2n1 [Example I-21]
logP [a] = log P (HCOOH) ([1]; pH 2.7): 4.17
efficacy (spider mites killed) [2]: 100%

CSc1ccccc1-c1cnc2cc(Cl)ccc2n1 [Example I-22]
efficacy (aphids killed) [3]: 90%
logP [a] = log P (HCOOH) ([1]; pH 2.7): 4.08

CCSc1ccccc1-c1cnc2cc(Cl)ccc2n1 [Example I-23]
logP [a] = log P (HCOOH) ([1]; pH 2.7): 4.56

CCOc1ncccc1-c1cnc2cc(C(F)(F)F)ccc2n1 [Example I-24]
logP [a] = log P (HCOOH) ([1]; pH 2.7): 4.59
efficacy (spider mites killed) [2]: 100%

FC(F)(F)c1ccc2nc(-c3ccc(Cl)cc3)cnc2c1 [Example I-25]
logP [a] = log P (HCOOH) [1, 5]: 4.99
efficacy (spider mites killed) [2]: 90%

CCc1cnccc1-c1cnc2ccc(C(F)(F)F)cc2n1 [Example I-27]
efficacy (spider mites killed) [2]: 90%

CS(=O)(=O)c1ccccc1-c1cnc2cc(Cl)ccc2n1 [Example I-28]
logP [a] = log P (HCOOH) ([1]; pH 2.7): 2.52
logP [b] = log P (neutral) ([1]; pH 7.8): 2.52

CC[S+]([O-])c1ccccc1-c1cnc2cc(Cl)ccc2n1 (centres unmarked) [Example I-31]
efficacy (aphids killed) [3]: 90%
logP [a] = log P (HCOOH) ([1]; pH 2.7): 2.66
logP [b] = log P (neutral) ([1]; pH 7.8): 2.65

CCSc1ccccc1-c1cnc2ccc(S(C)(=O)=O)cc2n1 [Example I-35]
logP [a] = log P (HCOOH) ([1]; pH 2.7): 2.85
logP [b] = log P (neutral) ([1]; pH 7.8): 2.78

Cc1cnccc1-c1nc2ccc(C(F)(F)F)cc2nc1Cl [Example I-37]
logP [a] = log P (HCOOH) ([1]; pH 2.7): 2.94

Cc1cnccc1-c1nc2cc(C(F)(F)F)ccc2nc1Cl [Example I-38]
logP [a] = log P (HCOOH) ([1]; pH 2.7): 2.88

Clc1ccc2nc(-c3ccncc3Cl)cnc2c1 [Example I-39]
logP [a] = log P (HCOOH) ([1]; pH 2.7): 2.99

Cc1cnccc1-c1cnc2cc(Cl)c(Cl)cc2n1 [Example I-41]
logP [a] = log P (HCOOH) ([1]; pH 2.7): 2.51
logP [b] = log P (neutral) ([1]; pH 7.8): 3.29

CCSc1ccccc1-c1cnc2cc(Cl)c(Cl)cc2n1 [Example I-42]
logP [a] = log P (HCOOH) ([1]; pH 2.7): 5.38
logP [b] = log P (neutral) ([1]; pH 7.8): 5.48

Cc1ccsc1-c1cnc2ccc(C(F)(F)F)cc2n1 [Example I-43]
logP [a] = log P (HCOOH) ([1]; pH 2.7): 4.65
logP [b] = log P (neutral) ([1]; pH 7.8): 4.66
efficacy (spider mites killed) [2]: 90%

Cc1cscc1-c1cnc2ccc(C(F)(F)F)cc2n1 [Example I-44]
logP [a] = log P (HCOOH) ([1]; pH 2.7): 4.57

Cc1cscc1-c1cnc2cc(C(F)(F)F)ccc2n1 [Example I-45]
logP [a] = log P (HCOOH) ([1]; pH 2.7): 4.57

Cc1ccccc1-c1cnc2cc(C(F)(F)F)ccc2n1 [Example I-46]
logP [a] = log P (HCOOH) [1, 5]: 4.48
efficacy (spider mites killed) [2]: 90%

Cc1ccccc1-c1cnc2ccc(C(F)(F)F)cc2n1 [Example I-47]
logP [a] = log P (HCOOH) [1, 5]: 4.47
logP [b] = log P (neutral) [1, 6]: 4.41

Cc1ccsc1-c1cnc2cc(C(F)(F)F)ccc2n1 [Example I-48]
logP [a] = log P (HCOOH) ([1]; pH 2.7): 4.67
efficacy (spider mites killed) [2]: 90%

Cn1nccc1-c1cnc2cc(C(F)(F)F)ccc2n1 [Example I-49]
logP [a] = log P (HCOOH) [1, 5]: 3.07
logP [b] = log P (neutral) [1, 6]: 3.05

Cn1nccc1-c1cnc2ccc(C(F)(F)F)cc2n1 [Example I-50]
logP [a] = log P (HCOOH) [1, 5]: 3.02
logP [b] = log P (neutral) [1, 6]: 3.00

Cc1ccc(-c2cnc3ccc(C(F)(F)F)cc3n2)c(F)c1 [Example I-51]
logP [a] = log P (HCOOH) ([1]; pH 2.7): 4.97
efficacy (spider mites killed) [2]: 100%

Cc1cccnc1-c1cnc2cc(C(F)(F)F)ccc2n1 [Example I-52]
logP [a] = log P (HCOOH) ([1]; pH 2.7): 3.69

FC(F)(F)c1ccc2nc(Cl)c(-c3ccc(Cl)cc3)nc2c1 [Example I-53]
logP [a] = log P (HCOOH) [1, 5]: 5.31

Cc1ccc(-c2c[n+]([O-])c3ccc(C(F)(F)F)cc3n2)c(F)c1 [Example I-54]
logP [a] = log P (HCOOH) ([1]; pH 2.7): 4.04
logP [b] = log P (neutral) ([1]; pH 7.8): 4.00

Cc1c[n+]([O-])ccc1-c1c[n+]([O-])c2cc(C(F)(F)F)ccc2n1 [Example I-55]
logP [a] = log P (HCOOH) [1, 5]: 1.59

Cc1cnccc1-c1cnc2cc(C#N)ccc2n1 [Example I-56]
logP [a] = log P (HCOOH) ([1]; pH 2.7): 1.17
logP [b] = log P (neutral) ([1]; pH 7.8): 1.81

CCSc1ccccc1-c1cnc2cc(C#N)ccc2n1 [Example I-57]
logP [a] = log P (HCOOH) ([1]; pH 2.7): 3.60
logP [b] = log P (neutral) ([1]; pH 7.8): 3.55

FC(F)(F)c1ccc2nc(-c3ccncc3)c(-c3ccncc3)nc2c1 [Example I-58]
logP [a] = log P (HCOOH) [1, 5]: 2.06

CCSc1ccccc1-c1nc2cc3c(cc2nc1-c1ccc(Cl)cc1)OC(F)(F)O3 [Example I-59]
logP [a] = log P (HCOOH) [1, 5]: 6.23

Cc1nc2cc(C(F)(F)F)ccc2nc1-c1cccnc1 [Example I-60]
logP [a] = log P (HCOOH) [1, 5]: 2.39

N#Cc1ccc2nc(-c3ccncc3)cnc2c1 [Example I-61]
logP [a] = log P (HCOOH) [1, 5]: 1.19

Cc1cnccc1-c1cnc2cc(F)c(F)cc2n1 [Example I-63]
efficacy (aphids killed) [3]: 90%
logP [a] = log P (HCOOH) ([1]; pH 2.7): 1.55

Cc1cnccc1-c1nc2ccc(C(F)(F)F)cc2nc1-c1ccc(Cl)cc1 [Example I-64]
logP [a] = log P (HCOOH) [1, 5]: 4.03

Cc1cnccc1-c1nc2cc(F)c(F)cc2nc1C [Example I-65]
logP [a] = log P (HCOOH) ([1]; pH 2.7): 1.58

Cc1cnccc1-c1nc2cc3c(cc2nc1C)OC(F)(F)O3 [Example I-67]
logP [a] = log P (HCOOH) ([1]; pH 2.7): 2.02

Cc1cnccc1-c1nc2cc(C(F)(F)F)ccc2nc1-c1ccc(Cl)cc1 [Example I-68]
logP [a] = log P (HCOOH) [1, 5]: 3.94

Clc1ccc2nc(-c3ccnc(Cl)c3)cnc2c1 [Example I-69]
logP [a] = log P (HCOOH) [1, 5]: 3.52

Fc1cc2ncc(-c3ccncc3Cl)nc2cc1F [Example I-70]
logP [a] = log P (HCOOH) ([1]; pH 2.7): 2.72

Clc1cc2ncc(-c3ccncc3Cl)nc2cc1Cl [Example I-71]
logP [a] = log P (HCOOH) ([1]; pH 2.7): 3.78

FC1(F)Oc2cc3ncc(-c4ccncc4Cl)nc3cc2O1 [Example I-72]
logP [a] = log P (HCOOH) ([1]; pH 2.7): 3.24

Clc1cc2ncc(-c3ccncc3)nc2cc1Cl [Example I-73]
logP [a] = log P (HCOOH) [1, 5]: 2.53

O=c1cnc2cc(C(F)(F)F)ccc2[nH]1 [VIa-01, 6-(trifluoromethyl)quinoxalin-2(1H)-one]
chromatographic logP [1, 7]: 1.71

O=c1cnc2ccc(C(F)(F)F)cc2[nH]1 [VIa-02, 7-(trifluoromethyl)quinoxalin-2(1H)-one]
chromatographic logP [1, 7]: 1.65

O=c1cnc2cc3c(cc2[nH]1)OC(F)(F)O3 [VIa-03, 2,2-difluoro[1,3]dioxolo[4,5-g]quinoxalin-6(5H)-one]
chromatographic logP [1, 4]: 1.49
chromatographic logP [1, 7]: 1.33

O=c1[nH]c2cc3c(cc2nc1-c1ccc(Cl)cc1)OC(F)(F)O3 [VIb-01, 7-(4-chlorophenyl)-2,2-difluoro [1,3]dioxolo [4,5-g]quinoxalin-6(5H)-one]
chromatographic logP [1, 4]: 2.96
